Laboratory results published in paper PMC12172450, “Moonlighting activity of threonine synthase in cyanobacterial cell death” (mSystems, 2025).

Tests used:
[1] = target: T1, ThrC (threonine synthase; ThrC-His6) (Microcystis aeruginosa, UniProt A0AB33BYK2); test: yellow colour of purified enzyme; PLP-dependent threonine deamination spectra; format: binding; settings: threonine as substrate; 50 mM PIPES pH 8.0
T1 construct: gene BH695_2536; full-length thrC (1,304 bp), N-terminal His6 tag from pET-28b(+), E. coli BL21(DE3), Ni-NTA purified; tag cleavage not mentioned
T1 sequence (A0AB33BYK2 entry or part of it): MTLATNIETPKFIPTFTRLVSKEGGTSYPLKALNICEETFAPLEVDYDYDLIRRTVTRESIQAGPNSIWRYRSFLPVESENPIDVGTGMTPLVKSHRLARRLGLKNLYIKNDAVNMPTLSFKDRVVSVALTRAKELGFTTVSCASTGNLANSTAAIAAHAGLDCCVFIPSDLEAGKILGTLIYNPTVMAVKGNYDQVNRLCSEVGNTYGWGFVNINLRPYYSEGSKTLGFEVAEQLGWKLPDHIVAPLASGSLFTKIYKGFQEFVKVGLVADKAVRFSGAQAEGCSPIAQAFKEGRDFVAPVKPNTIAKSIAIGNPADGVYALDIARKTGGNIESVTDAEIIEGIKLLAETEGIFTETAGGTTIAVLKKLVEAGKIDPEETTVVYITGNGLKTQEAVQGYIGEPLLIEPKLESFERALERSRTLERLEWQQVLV

[2] = target: T1, ThrC (threonine synthase; ThrC-His6); test: in vitro threonine deaminase assay, inhibition; format: biochemical; settings: threonine as substrate; concentration-dependent inhibition
[3] = target: T1, ThrC (threonine synthase; ThrC-His6); test: alpha-ketobutyrate formation (semicarbazide / […],4-DNPH), threonine deaminase activity, sigmoidal fit; format: biochemical; settings: 50 mM PIPES pH 8.0, 100 mM KCl, 0.1 mM EDTA, 1 mM DTT, PLP, 25 °C; sigmoidal kinetics

Row | SMILES | inhibition [2] | also measured
1 | Cc1ncc(COP(=O)(O)O)c(C=O)c1O [PLP] |  | yellow colour of purified enzyme; PLP-dependent threonine deamination spectra [1]: threonine synthase could utilize PLP as a catalyst to degrade threonine into keto acids
2 | CC[C@H](C)[C@H](N)C(=O)O [isoleucine] | alanine and isoleucine, also exhibited concentration-dependent inhibitory activity against aKB-generating deaminases | 
3 | C[C@H](N)C(=O)O [alanine] | alanine and isoleucine, also exhibited concentration-dependent inhibitory activity against aKB-generating deaminases | 
4 | C[C@@H](O)[C@H](N)C(=O)O [threonine] |  | K0.5 [3]: The sigmoidal kinetics of ThrC as a threonine deaminase were analyzed in the presence of threonine
